Measurements taken from patent US11470828B2, “Rodent model of mood disorders” (REGENERON PHARMACEUTICALS, INC., priority 2019, dated 2022).
Where “and” joins values, the source holds several entries; their conditions need not be identical. Equal entries are not always repeated. Where two headings read alike, the source gives them in different places.

System: GPR156^E533D/E533D mice
Conditions: for Effect on impaired swim phenotype (ability to perform 6-minute swim test): GPR156^E533D/E533D mice, Fluoxetine 10 mg/kg i.p. daily for 9 weeks
Description: Mice were placed in a 5 liter clear plastic beaker (25×18 cm diameter) filled with 4 liters of 23-25° C. tap water to ensure mice cannot touch the bottom of the flask even with their tail. Four animals were recorded simultaneously using an ANY-maze™ video-tracking system (Stoelting Co.). Data were recorded for 6 minutes. Flask were separated by 3 sided white plastic partitions (40 cm high×25 cm wide). Swim test was recorded for 6 minutes. Recordings were set up to start automatically if there was motion in the flask so that recorded times are specific for each individual mouse.
The 6 minutes recording was broken into three time segments (0-100 seconds, 101-200 second and last […]) to get a better sampling of behaviors across time.
Main data points analyzed for the FST were swim time, time mobile, time immobile, speed, distance traveled, rearing in the swim zone, mobile episodes and immobile episodes. Immobility is defined as 60% of total body mass being immobile for 2 seconds. This parameter allows for small movements of hind legs and feet to maintain balance and or to tread water without be considered actively swimming.
Mice were tested for a 6 minute forced swim test weekly before and after daily treatment with intraperitoneal injection of Fluoxetine 10 mg/kg for […]. Total time of swim test seconds) before and after daily treatment with Fluoxetine was recorded. […] Data were expressed as mean±SEM for each animal group.
To test whether Fluoxetine could reverse the impaired swim test phenotype, GPR156^hum/hum and GPR156^E533D/E533D mice were treated with Fluoxetine 10 mg/kg (i.p) daily for 6 days/week for 9 weeks. […] Therefore, mice were subjected to a swim test (baseline) and animals able to perform the 6 minutes swim test were excluded from the study. The remaining mice were then split into 2 groups, treated and untreated with Fluoxetine.
For this study, mice were subjected to a swim test (baseline) and animals able to perform the 6 minutes swim test were excluded from the study.

CNCCC(Oc1ccc(C(F)(F)F)cc1)c1ccccc1 (stereo not drawn) [Fluoxetine]
Percentage of mice achieving the swim test (GPR156^E533D/E533D mice (0/13 at baseline), Fluoxetine 10 mg/kg i.p. daily 6 days/week, after 9 weeks, males and females combined): 53% and 61%
Effect on impaired swim phenotype (ability to perform 6-minute swim test): improves the impaired swim phenotype
Effect on impaired swim phenotype (ability to perform 6-minute swim test) (listed as fluoxetine): improved on their ability to perform the swim test
Percentage of females able to successfully perform the 6 minutes swim test (female mice homozygous for E533D, Fluoxetine 10 mg/kg i.p. daily, after 4 weeks (5 out of 10)): 50%
Percentage of GPR156^E533D/E533D mice that achieved the test (following 4-9 weeks of treatment with Fluoxetine 10 mg/kg, i.p., daily, none able prior to treatment): Fluoxetine (10 mg/kg, i.p., daily), 53%
Percentage of males able to successfully perform the 6 minutes swim test (male mice homozygous for E533D, Fluoxetine 10 mg/kg i.p. daily, after 4 weeks (5 out of 8)): 62.5%
